From PMC6642116, “Structural and functional analyses of hepatitis B virus X protein BH3-like domain and Bcl-xL interaction” (Nature Communications, 2019) come the findings set out here.

Where two headings read alike, the source gives them in different places. Residues, ends and D or L forms follow the SMILES beside them.

The target of data set [1] is T1, Bcl-xL (Homo sapiens, UniProt Q07817, DEL27-82).
T1 construct: 6xHis-SUMO (N, cleaved yes); made in house; host or cells: Escherichia coli BL21(DE3)
Kind of data set: Isothermal titration calorimetry of peptides with Bcl-xL. As to conditions: ITC, 25 °C, peptide 800 μM. The class given is binding. The source says: The codon-optimized DNAs encoding Bcl-xLΔTM (the flexible loop, residues 27–82, and the transmembrane domain, residues, 197–233, are deleted, total […], named as Bcl-xL thereafter) was ordered from Genewiz (www.genewiz.com). The recombinant Bcl-xL with N-terminal SUMO-fused 6× His tag was generated by the insertion of the PCR products into pETSUMO vector (Invitrogen; www.thermofisher.com) and verified by sequencing. Recombinant proteins were expressed in Escherichia coli (BL21/DE3) strain overnight at 20 °C and proteins were induced by 0.4 mM isopropyl β-D-thiogalactoside. Cells were harvested by centrifugation and the pellets were re-suspended and passed through a cell disruptor (www.avestin.com) three times. After ultracentrifugation at 40,000 rpm for 1 h, the supernatant for His-tagged recombinant proteins were purified through Ni^2+ affinity column, cleaved by Ulp-1, followed by HiLoad Superdex S-75 26/60 column (GE Healthcare). The purified proteins were dialyzed against stabilization buffer containing 20 mM Tris-HCl (pH 7.0) and 100 mM NaCl and concentrated to 10–15 mg/ml in a Centriprep-30 (Amicon) for subsequent crystallization and biochemical analysis.
Microcalorimetry was used for all measurements. Bcl-xL protein was prepared at a final concentration of 10 μM in a buffer containing 25 mM Tris-HCl (pH 8.0). The ABT-263 was dissolved in the same buffer to a final concentration of 500 μM, while the peptides were dissolved to a final concentration of 800 μM. All experiments were carried out at 25 °C. Data were analyzed using the software Origin (OriginLab).
A general note: ITC needs no label: the signal is the heat of the interaction.

The test system of data set [2] is HepG2-NTCP cells. Nature of the data set: Cell viability (CCK8 assay) of HBV-infected HepG2-NTCP cells. Type of data set: cell-based. On the set-up: Cell viability: unit not given here. The conditions noted are these: for Cell viability: day 8 after HBV infection. How it is done: Fig. 6 The HBx-aa118–127 peptide, but not ABT-263, inhibits HBV replication and transcription in HepG2.2.15 cells. a HepG2.2.15 cells were treated with 125, 250, 500, and 1000 nM of ABT-263 for 2 days. Cytoplasmic HBV viral particles were isolated and the viral DNA replication intermediates were quantified (Methods). The results represent the fold change of the replicative intermediates in HepG2.2.15 cells from the indicated treatments, compared with those without treatment. b HepG2.2.15 cells were treated with the indicated concentrations of ABT-263 for 2 days. The lysate was analyzed by immunoblotting using antibodies to caspase-3 (CASP3) and GAPDH (glyceraldehyde 3-phosphate dehydrogenase). c, d The HBx-aa113–135, HBx-aa118–127, or the control peptides were delivered into HepG2.2.15 cells using PEP-1 nanoparticles (Methods). The levels of HBV DNA (c) and the levels of HBV S-antigen (HBsAg) expression (d) in culture medium collected from HepG2.2.15 cells were measured (Methods). The results are shown as fold change compared to that of the control peptide. e–g HepG2-NTCP cells were transfected with HBx118–127 peptide with concentration of […], and 50 μg/ml or unrelated control peptide during HBV infection (multiplicity of infection (MOI) = 200), respectively. e HBV e-antigen (HBeAg), f HBV DNA, and g cell viability were measured at day 8 after HBV infection. Data shown represent mean ± SD. Significance is indicated on the top. Not significant (ns): *P < 0.05, **P < 0.01; two-tailed unpaired t tests (n = 3 biologically independent samples). Source data are provided as a Source Data file
HBx-aa118-127 peptide treatment.
obvious cytotoxicity at concentrations between 12.5-200 µg/mL (Fig. 6g). Taken together, […]
(In general: Tetrazolium dyes change colour on reduction, which living cells bring about.)

Data set [3] has as its system HepG2-NTCP cells. The description is as above. Also noted: unit not given here. As to conditions: CCK8, 200 µg/mL, day 8 after HBV infection. The class given is cell-based.
Setting [4] is: Bcl-xL 10 μM in 25 mM Tris-HCl (pH 8.0), read-out: dissociation constant.

Take `CC[C@H](C)[C@H](NC(=O)[C@H](CCC(=O)O)NC(=O)[C@H](CCC(=O)O)NC(=O)CNC(=O)[C@H](CC(C)C)NC(=O)[C@H](CCC(=O)O)NC(=O)[C@H](CCC(=O)O)NC(=O)[C@H](Cc1c[nH]c2ccccc12)NC(=O)[C@H](CC(=O)O)NC(=O)[C@H](CCCCN)NC(=O)[C@H](Cc1ccccc1)NC(=O)[C@@H](NC(=O)[C@H](CS)NC(=O)[C@H](CC(=O)O)NC(=O)[C@@H](N)CCCCN)C(C)C)C(=O)N[C@@H](CCCNC(=N)N)C(=O)N[C@@H](CC(C)C)C(=O)N[C@@H](CCCCN)C(=O)N[C@H](C(=O)N[C@@H](Cc1ccccc1)C(=O)N[C@H](C(=O)N[C@@H](CC(C)C)C(=O)NCC(=O)O)C(C)C)C(C)C` [HBx-aa113–135]: the Kd in data set [1] (setting [4]) came to 26.5 ± 13.7 µM.
Regarding `CC[C@H](C)[C@H](NC(=O)[C@H](CCC(=O)O)NC(=O)[C@H](CCC(=O)O)NC(=O)CNC(=O)[C@H](CC(C)C)NC(=O)[C@H](CCC(=O)O)NC(=O)[C@H](CCC(=O)O)NC(=O)[C@H](Cc1c[nH]c2ccccc12)NC(=O)[C@H](CC(=O)O)NC(=O)[C@@H](N)CCCCN)C(=O)O` [HBx-aa118–127] (H-KDWEELGEEI-OH), the Cell viability in data set [2] (CCK8, 12.5 µg/mL, replicate 1) is listed as 94.534; in data set [2] (CCK8, 12.5 µg/mL, replicate 2) it was 96.726; in data set [2] (CCK8, 12.5 µg/mL, replicate 3), 98.429; in data set [2] (CCK8, 50 µg/mL, replicate 1) it was 92.904; in data set [2] (CCK8, 50 µg/mL, replicate 2), 96.191; in data set [2] (CCK8, 50 µg/mL, replicate 3), 97.303. Further, the Cell viability in data set [3] (replicate 1) is given as 96.104; in data set [3] (replicate 2) it was 101.260; in data set [3] (replicate 3), 101.966. Also, the “cytotoxicity (in words)” value in data set [2] (HepG2-NTCP, 12.5, 50, and 200 µg/ml) is listed as “no obvious cytotoxicity”. Moreover, the Kd in data set [1] (setting [4]) turned out to be 10 ± 2.95 µM; in data set [1] (Bcl-xL 10 μM presaturated with ABT-263, 25 mM Tris-HCl (pH 8.0), read-out: dissociation constant, Bcl-xL presaturated with ABT-263), 21 ± 4.05 µM.
